From patent US20250144067A1, “PERSONALIZED STARVATION THERAPY FOR CANCER” (Faeth Therapeutics, Inc., priority 2021, published 2025) come the findings set out here.

Where a name gives a salt, the structure may show the parent alone.

Experiment [1] deals with NCI-H292 lung cancer cells. In words: FDA drug screening, complete media vs cholesterol-free media without statin (TABLE 1). It is filed as cell-based, human.
Experiment [2] has as its system NCI-H292 lung cancer cells. In words: FDA drug screening, complete media vs cholesterol-free media with simvastatin (TABLE 2). Format: cell-based, human. Particulars: for Cholesterol-free media + simvastatin (0.04 μM) / Complete Media: NCI-H292 cells.
[3] abbreviates: Complete minus Cholesterol-free; >0 enhanced anti-cancer activity, about 0 neutral, <0 antagonist.
Setting [4] is: NCI-H292 cells, cholesterol-free media without statin, FDA drug library screen.
The mark [5] stands for this setting: NCI-H292 cells, complete media, FDA drug library screen.
The mark [6] stands for this setting: FDA drug library screen, cholesterol-free media with simvastatin 0.04 μM.
[7] abbreviates: FDA drug library screen, complete media.
Where [8] appears, read: Complete minus Cholesterol-free; greater than 0 enhanced anti-cancer activity, about 0 neutral, below 0 antagonist.
Where [9] appears, read: NCI-H292 cells, FDA drug library screen, cholesterol-free media without statin.
Setting [10] is: NCI-H292 cells, FDA drug library screen, complete media.
Setting [11] is: drug in cholesterol-free media with simvastatin 0.04 μM.
Where [12] appears, read: complete media vs cholesterol-free media + simvastatin (0.04 μM), >0 enhanced anti-cancer activity, about 0 neutral, <0 antagonist.
[13] abbreviates: NCI-H292 cells, cholesterol-free media without statin.
Setting [14] is: FDA library drug in cholesterol-free media with simvastatin 0.04 μM.
Setting [15] is: FDA library drug in complete media.
Setting [16] is: cholesterol-free media with simvastatin 0.04 μM, FDA drug library screen (TABLE 2).
[17] abbreviates: complete media, FDA drug library screen (TABLE 2).
The mark [18] stands for this setting: complete media minus cholesterol-free media + simvastatin (0.04 μM), >0 enhanced anti-cancer activity, about 0 neutral, <0 antagonist.
Setting [19] is: complete vs cholesterol-free media; greater than 0 enhanced anti-cancer activity, about 0 neutral, below 0 antagonists.
The mark [20] stands for this setting: Complete minus Cholesterol-free; […].
The mark [21] stands for this setting: complete media vs cholesterol-free media + simvastatin (0.04 μM), […].

Consider `CC/C(=C(\c1ccccc1)c1ccc(OCCN(C)C)cc1)c1ccccc1` [Tamoxifen], for which the Difference turned out to be 0.05 in experiment [1] (setting [3]) and 0.33 in experiment [2] (complete media minus cholesterol-free media + simvastatin, >0 enhanced anti-cancer activity, about 0 neutral, <0 antagonist). In experiment [1] (setting [4]), the Cholesterol-free is recorded as 0.6611. The same compound came in with a Complete in experiment [1] (setting [5]) of 0.7069. Also, in experiment [2] (setting [6]), the “Cholesterol-free media + simvastatin (0.04 μM)” value is recorded as 0.7526. In addition, the “Complete Media” value in experiment [2] (setting [7]) worked out at 1.084.
Turning to `O=C1c2cccc(O)c2C(=O)c2c(O)cccc21` [Danthron], the Difference in experiment [1] (setting [8]) is −0.15; in experiment [2] (setting [12]) it was −0.16. Further, the Cholesterol-free in experiment [1] (setting [9]) worked out at 0.9427. Further, the Complete in experiment [1] (setting [10]) worked out at 0.7921. Also, the “Cholesterol-free media + simvastatin (0.04 μM)” value in experiment [2] (setting [11]) came out at 1.634. Moreover, the “Complete Media” value in experiment [2] (drug in complete media) came to 1.469.
With `CCCCc1nc(Cl)c(CO)n1Cc1ccc(-c2ccccc2-c2nn[nH]n2)cc1` [Losartan], the Difference is given as −0.28 in experiment [1] (setting [3]) and −0.50 in experiment [2] (setting [12]). In addition, in experiment [1] (setting [13]), the Cholesterol-free was 1.549. Besides, the Complete in experiment [1] (NCI-H292 cells, complete media) worked out at 1.271. In experiment [2] (setting [14]), the “Cholesterol-free media + simvastatin (0.04 μM)” value came out at 1.37. Further, the “Complete Media” value in experiment [2] (setting [15]) came to 0.8741.
As for `O=C(O)c1cc(/N=N/c2ccc(S(=O)(=O)Nc3ccccn3)cc2)ccc1O` [Sulfasalazine], the Difference in experiment [1] (setting [3]) is reported as −0.20; in experiment [2] (setting [18]), −0.01. Also, the Cholesterol-free in experiment [1] (setting [13]) was 1.104. In addition, in experiment [1] (NCI-H292 cells, complete media), the Complete was 0.9081. In addition, the “Cholesterol-free media + simvastatin (0.04 μM)” value in experiment [2] (setting [16]) is 1.17. The “Complete Media” value in experiment [2] (setting [17]) amounted to 1.155.
Regarding Sitagliptin (phosphate monohydrate), the Cholesterol-free in experiment [1] (setting [13]) amounted to 1.047. Besides, the Complete in experiment [1] (NCI-H292 cells, complete media) is 0.6455. The Difference in experiment [1] (setting [19]) is −0.40; in experiment [2] (setting [12]), −0.17. The “Cholesterol-free media + simvastatin (0.04 μM)” value in experiment [2] (setting [11]) is 1.13. Moreover, the “Complete Media” value in experiment [2] (drug in complete media) was 0.959.
`CN1C2CCCC1CC(NC(=O)c1nn(C)c3ccccc13)C2` (centres unmarked) [Granisetron (Hydrochloride)]: the Difference in experiment [1] (setting [3]) is reported as −0.26; in experiment [2] (setting [18]), −0.05. Moreover, the Cholesterol-free in experiment [1] (setting [13]) is 1.123. The Complete in experiment [1] (NCI-H292 cells, complete media) was found to be 0.8639. Moreover, in experiment [2] (setting [16]), the “Cholesterol-free media + simvastatin (0.04 μM)” value was 0.8994. Also, in experiment [2] (setting [17]), the “Complete Media” value was determined as 0.8536.
Take `O=C1[C@H]2CCCC[C@H]2C(=O)N1CCCCN1CCN(c2nsc3ccccc23)CC1` [Perospirone]: the Cholesterol-free in experiment [1] (setting [13]) is listed as 1.046. The compound also showed a Complete in experiment [1] (NCI-H292 cells, complete media) of 0.7154. In addition, the results for the Difference in experiment [1] (setting [19]) and in experiment [2] (setting [18]) were −0.33 and −0.06, respectively. In addition, in experiment [2] (setting [16]), the “Cholesterol-free media + simvastatin (0.04 μM)” value stood at 0.9946. For the same compound, the “Complete Media” value in experiment [2] (setting [17]) amounted to 0.9329.
“Angiotensin II 5-valine (DRVYVHPF; Angiotensin-2; UniProt P01019 25-32, looked up, variant I5V)” returned a Cholesterol-free in experiment [1] (setting [4]) of 0.8655. In addition, the Complete in experiment [1] (setting [5]) turned out to be 1.09. Moreover, the Difference in experiment [1] (complete vs cholesterol-free media; […]) is 0.22; in experiment [2] (complete media minus cholesterol-free media + simvastatin (0.04 μM), […]), −0.98. For the same compound, the “Cholesterol-free media + simvastatin (0.04 μM)” value in experiment [2] (setting [6]) is 2.07.
In the case of `CC1(C)[C@@H](O)CC[C@]2(C)[C@H]3C(=O)C=C4[C@@H]5C[C@@](C)(C(=O)O)CC[C@]5(C)CC[C@@]4(C)[C@]3(C)CC[C@@H]12` [18β-Glycyrrhetinic acid], the Difference in experiment [1] (setting [8]) was −0.09; in experiment [2] (setting [12]), −0.10. Moreover, the Cholesterol-free in experiment [1] (setting [9]) stood at 1.192. Besides, the Complete in experiment [1] (setting [10]) was found to be 1.102. Besides, the “Cholesterol-free media + simvastatin (0.04 μM)” value in experiment [2] (setting [6]) was determined as 0.8991. Also, in experiment [2] (setting [7]), the “Complete Media” value is 0.8018.
In experiment [1] (setting [4]), `CSc1ccc2c(c1)N(CCC1CCCCN1C)c1ccccc1S2` (centres unmarked) [Thioridazine (hydrochloride)] came in with a Cholesterol-free of 1.045. Also, the Complete in experiment [1] (setting [5]) worked out at 1.124. Further, the Difference in experiment [1] (complete vs cholesterol-free media; >0 enhanced anti-cancer activity, about 0 neutral, <0 antagonist) was 0.08; in experiment [2] (setting [12]), −0.13. Moreover, in experiment [2] (setting [6]), the “Cholesterol-free media + simvastatin (0.04 μM)” value is recorded as 1.073. Besides, the “Complete Media” value in experiment [2] (setting [7]) came to 0.9459.
With `CCOc1ccc(Cc2cc([C@@H]3O[C@H](SC)[C@@H](O)[C@H](O)[C@H]3O)ccc2Cl)cc1` [Sotagliflozin], the Difference in experiment [1] (setting [8]) and in experiment [2] (setting [12]) was −0.11 in each case. Also, the Cholesterol-free in experiment [1] (setting [9]) was found to be 1.101. This compound showed a Complete in experiment [1] (setting [10]) of 0.9895. For the same compound, the “Cholesterol-free media + simvastatin (0.04 μM)” value in experiment [2] (setting [6]) worked out at 1.193. In experiment [2] (setting [7]), the “Complete Media” value turned out to be 1.078.
`CC(=O)[C@@]1(O)CC[C@H]2[C@@H]3CCC4=CC(=O)CC[C@]4(C)[C@H]3CC[C@@]21C` [17-Hydroxyprogesterone]: the results for the Difference in experiment [1] (setting [20]) and in experiment [2] (setting [21]) were −0.02 and −0.10, respectively. The compound also registered a Cholesterol-free in experiment [1] (setting [4]) of 1.202. In experiment [1] (setting [5]), this compound had a Complete of 1.185. For the same compound, the “Cholesterol-free media + simvastatin (0.04 μM)” value in experiment [2] (setting [6]) is reported as 0.9953. Besides, in experiment [2] (setting [7]), the “Complete Media” value amounted to 0.8962.
Take `COc1cc(Nc2ncc(F)c(Nc3ccc4c(n3)N(COP(=O)(O)O)C(=O)C(C)(C)O4)n2)cc(OC)c1OC` [Fostamatinib (disodium hexahydrate)]: the Difference is listed as 0.00 in experiment [1] (setting [3]) and −0.10 in experiment [2] (setting [12]). In addition, the Cholesterol-free in experiment [1] (setting [4]) was 0.5454. In experiment [1] (setting [5]), this compound returned a Complete of 0.5466. Moreover, in experiment [2] (setting [6]), the “Cholesterol-free media + simvastatin (0.04 μM)” value turned out to be 0.9752. For the same compound, in experiment [2] (setting [7]), the “Complete Media” value is 0.8745.
Turning to `FC(F)(F)c1ccc(CNc2ccc(Cc3c[nH]c4ncc(Cl)cc34)cn2)cn1` [Pexidartinib (hydrochloride)], in experiment [1] (setting [13]), the Cholesterol-free is recorded as 1.204. For the same compound, the Complete in experiment [1] (NCI-H292 cells, complete media) is reported as 0.7514. The Difference is given as −0.45 in experiment [1] (setting [19]) and −0.13 in experiment [2] (setting [12]). Also, in experiment [2] (setting [6]), the “Cholesterol-free media + simvastatin (0.04 μM)” value is listed as 1.136. Moreover, in experiment [2] (setting [7]), the “Complete Media” value was found to be 1.002.
Take `CC(C)(C(=O)O)c1ccc(C(O)CCCN2CCC(C(O)(c3ccccc3)c3ccccc3)CC2)cc1` (centres unmarked) [Fexofenadine (hydrochloride)]: the Difference is recorded as −0.02 in experiment [1] (setting [3]) and −0.30 in experiment [2] (setting [12]). Besides, in experiment [1] (setting [4]), the Cholesterol-free was found to be 1.052. This compound also displayed a Complete in experiment [1] (setting [5]) of 1.034. For the same compound, the “Cholesterol-free media + simvastatin (0.04 μM)” value in experiment [2] (setting [14]) is 1.402. Besides, in experiment [2] (setting [15]), the “Complete Media” value amounted to 1.104.
`O=c1c(-c2ccc(O)cc2)coc2cc(O[C@@H]3O[C@H](CO)[C@@H](O)[C@H](O)[C@H]3O)ccc12` [Daidzin]: the Difference is −0.25 in experiment [1] (setting [20]) and −0.20 in experiment [2] (setting [21]). Further, the Cholesterol-free in experiment [1] (setting [13]) is 1.084. This compound had a Complete in experiment [1] (NCI-H292 cells, complete media) of 0.8381. Moreover, the “Cholesterol-free media + simvastatin (0.04 μM)” value in experiment [2] (setting [11]) is 1.011. Besides, the “Complete Media” value in experiment [2] (drug in complete media) was found to be 0.8061.
Consider `Nc1nc(O)c2ncn(COC(CO)CO)c2n1` [Ganciclovir], for which the Difference in experiment [1] (setting [3]) is given as 0.07; in experiment [2] (setting [18]), −0.02. The same compound displayed a Cholesterol-free in experiment [1] (setting [4]) of 0.8931. Also, the Complete in experiment [1] (setting [5]) was 0.9638. Also, the “Cholesterol-free media + simvastatin (0.04 μM)” value in experiment [2] (setting [16]) is recorded as 0.88. In addition, the “Complete Media” value in experiment [2] (setting [17]) is listed as 0.8599.
As for `C=C1C[C@@H]2[C@H](CC[C@]3(C)C(=O)CC[C@@H]23)[C@@]2(C)C=CC(=O)C=C12` [Exemestane], the Difference in experiment [1] (setting [3]) was −0.01; in experiment [2] (setting [12]), −0.31. The compound also displayed a Cholesterol-free in experiment [1] (setting [4]) of 1.056. Further, the Complete in experiment [1] (setting [5]) was 1.048. Also, the “Cholesterol-free media + simvastatin (0.04 μM)” value in experiment [2] (setting [14]) is 1.215. In experiment [2] (setting [15]), the “Complete Media” value amounted to 0.9053.
